Reference: patent publication US20130158267A1, “METHOD OF SYNTHESIZING THE COMPLEX [ZN(NNS)2] ACTIVE AGAINST THE MALARIA PARASITE PLASMODIUM” (priority 2010, published 2013)

System: chloroquine resistant strain (W2)
Experiment: activity against chloroquine resistant strain of the malaria parasite
Format: cell-based, Plasmodium falciparum
Details: compared with control drug
Description: 3-[1-(2-pyridyl)ethylidene]hydrazinecarbodithioate have moderate potency against falcipain-2 (FP-2) and falcipain-3 (FP-3) cysteine protease enzymes from the malaria parasite plasmodium falciparum while they portray enormous potency against the chloroquine resistant strain (W2) of the parasite. This patent describes the synthesis, characterization and biological results of metal complexes containing deprotonated 3-[1-(2-pyridyl) ethylidene] hydrazinecarbodithioate ligand (FIG. 1). The metal complex were synthesized and recrystallized. The biological activities (nanomolar) of the metal complex against malaria parasites were tested and tabled as table 2 in FIG. 6 of the drawings. The metal potency was far much greater than the control drug with respect to W-2 . This observation is extremely important as malaria resistance against the chloroquine drug is a great challenge today. This metal complex may act as lead compounds for developing future malaria drugs . […] The potency of cadmium is greatest with respect to W-2 compared to other metals as well as the control drug. The metal complex ZnL(LH)Cl containing the deprotonated dithioester L- have been synthesized and charachterized by elemental analysis, mass spectrometry, proton NMR and Fourier transform IR. The ligand LH undergoes tautomerism which can readily get ionized to generate a deprotonated ligand L-. […]

In the case of [Cd] [cadmium], the “potency against W-2 in words / activity sequence versus control” value is reported as “greatest”.
